Assay results taken from patent publication US8580842B2, “Heteroaryl-substituted 1,3-dihydroindol-2-one derivatives and medicaments containing them” (Abbott GmbH & Co. KG, priority 2003, dated 2013).

How the values were obtained:
human V1b receptors = target: T1, human V1b receptors (Homo sapiens, UniProt P47901); assay: Vasopressin V1b receptor binding assay; settings: membranes from CHO-K1 cells expressing human V1b receptors, displacement of 1.5 nM 3H-AVP; read-out: Binding affinity for the vasopressin V1b receptor
T1 construct: expressed in transfected cells; host or cells: CHO-K1 (membrane preparation V1b-3H2)
T1 sequence (P47901 1-424): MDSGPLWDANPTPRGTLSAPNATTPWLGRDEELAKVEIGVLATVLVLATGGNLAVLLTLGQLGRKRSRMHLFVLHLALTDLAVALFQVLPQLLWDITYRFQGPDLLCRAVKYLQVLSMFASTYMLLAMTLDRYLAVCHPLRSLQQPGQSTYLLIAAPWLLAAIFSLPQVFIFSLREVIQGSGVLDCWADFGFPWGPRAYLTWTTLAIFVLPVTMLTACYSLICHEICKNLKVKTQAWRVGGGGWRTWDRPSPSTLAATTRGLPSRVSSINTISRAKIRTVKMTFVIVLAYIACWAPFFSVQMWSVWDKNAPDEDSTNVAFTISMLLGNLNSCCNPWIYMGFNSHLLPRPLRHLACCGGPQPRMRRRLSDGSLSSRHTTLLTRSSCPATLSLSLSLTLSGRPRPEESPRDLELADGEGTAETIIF
How it was run: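 Membranes from CHO-K1 cells stably expressing human V1b incubated with 1.5 nM ³H-AVP and test compound in 50 mM Tris, 10 mM MgCl2, 0.1% BSA, pH 7.4, 60 min at room temperature; non-specific binding with 10^−6 M AVP. Filtration and scintillation counting in triplicate; binding parameters by non-linear regression.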

Male Sprague Dawley rats = assay: Rat forced swim test; type: in vivo; settings: ip; rat forced swim model, intraperitoneal route, three times before re-testing; read-out: ED50 (decrease of immobility time)
Excerpt: Antidepressant Effects of Compounds of this Invention in the Rat Forced Swim Model
The potential antidepressant effects of some examples of this invention were examined in the rat forced swim test. When rats are forced to swim in a cylinder from which no escape is possible they readily adopt a characteristic immobile posture and make no further attempts to escape except for small movements needed to keep floating. The immobility is considered to reflect a ‘depressive mood’ (Porsolt R D, LePichon M, Jalfre M (1977). Depression: a new animal model sensitive to antidepressant treatment. Nature 266, 730-732.), in which animals cease to struggle to escape the aversive situation. The immobility induced by the procedure is influenced by a wide variety of antidepressants (Porsolt R D, Lenegre A, McArthur R A (1991). Pharmacological models of depression. In: Animal models in Psychopharmacology. B. Olivier, J. Mos, J. L. Slangen (eds) Birkhauser Verlag, Basel, pp. 137-159.) and has a good predictive validity in that it detects antidepressants with different mechanisms of action. Administration of antidepressants such as fluoxetine increases the time an animal struggles (decreases the immobility time) when forced to swim in a confined space. Lack of struggling is thought to represent a state of despair.
Procedure: Male Sprague Dawley rats (Janvier) weighing 160-200 gram (n=6) were placed individually into a glass water tank (40 cm×21.5 cm) filled with tap water (25° C.) up to 18 cm. This pre-test lasted for 15 min. Twenty-four hours later, animals were re-tested for 5 min in the same water tank while the total immobility time, swimming time and climbing time were recorded. Rats were considered immobile when they made no further attempts to escape, except for movements necessary to keep their heads above water (Porsolt R D, Anton G, Blavet N & Jalfre M. (1978). Behavioural despair in rats: a new model sensitive to antidepressant treatments. European Journal of Pharmacology 47, 379-391). The absence of hind limb movements was recorded as immobility using a stopwatch by a single observer. […]

| Ki (human V1b receptors) | Compound | ED50 (Male Sprague Dawley rats) |
| --- | --- | --- |
| < 0.05 µM | COc1ccc(S(=O)(=O)N2C(=O)C(c3cccnc3OC)(N3C[C@H](O)C[C@H]3C(=O)N(C)C)c3cc(Cl)ccc32)c(OC)c1 (single isomer, unassigned) [Example 5] | < 30 mg/kg |
| < 0.05 µM | COc1ccccc1C1(N2C[C@H](O)C[C@H]2C(=O)N(C)C)C(=O)N(S(=O)(=O)c2cccs2)c2ccc(Cl)cc21 (single isomer, unassigned) [Example 29] | < 30 mg/kg |
| < 0.05 µM | COc1ncccc1C1(OC(=O)N2CCN(C3CCN(C)CC3)CC2)C(=O)N(S(=O)(=O)c2ccsc2)c2ccc(Cl)cc21 (stereo not shown) [Example 171, 4-(1-Methyl-piperidin-4-yl)-piperazine-1-carboxylic acid 5-chloro-3-(2-methoxy-pyridin-3-yl)-2-oxo-1-(thiophene-3-sulfonyl)-2,3-dihydro-1H-indol-3-yl ester diacetate] | – |
| 0.05 to 0.5 µM | COc1ncccc1C1(OC(=O)N2CCN(C3CCN(C)CC3)CC2)C(=O)N(S(=O)(=O)c2cc3ccccc3s2)c2ccc(Cl)cc21 (stereo not shown) [Example 172, 4-(1-Methyl-piperidin-4-yl)-piperazine-1-carboxylic acid 1-(benzo[b]thiophene-2-sulfonyl)-5-chloro-3-(2-methoxy-pyridin-3-yl)-2-oxo-2,3-dihydro-1H-indol-3-yl ester diacetate] | – |
| < 0.05 µM | COc1ccc(S(=O)(=O)N2C(=O)C(c3cccnc3OC)(N(C)[C@@H](C)C(=O)N(C)C)c3cc(Cl)ccc32)c(OC)c1 (stereo partly shown) [Example 220] | – |
| < 0.05 µM | COc1ccc(S(=O)(=O)N2C(=O)C(c3ccc[nH]c3=O)(N3C[C@H](O)C[C@H]3C(=O)N(C)C)c3cc(Cl)ccc32)c(OC)c1 (stereo partly drawn) [Example 224, (2S,4R)-1-[5-Chloro-1-(2,4-dimethoxy-benzenesulfonyl)-2-oxo-3-(2-oxo-1,2-dihydro-pyridin-3-yl)-2,3-dihydro-1H-indol-3-yl]-4-hydroxy-pyrrolidine-2-carlboxylic acid dimethylamide] | – |
| – | COc1ccc(S(=O)(=O)N2C(=O)[C@@](c3ccccc3OC)(N3C[C@H](O)C[C@H]3C(=O)N(C)C)c3cc(Cl)ccc32)c(OC)c1 [SSR149415, reference compound] | > 30 mg/kg |

| Compound | Ki (human V1b receptors) | ED50 (Male Sprague Dawley rats) |
| --- | --- | --- |
| (2S,4R)-1-[5-Chloro-3-(2,4-dimethoxy-pyrimidin-5-yl)-1-(5-methyl-pyridine-2-sulfonyl)-2-oxo-2,3-dihydro-1H-indol-3-yl]-4-hydroxy-pyrrolidine-2-carboxylic acid dimethylamide [Example 289] | < 0.05 µM | – |
